Laboratory results from US12721836B2, “Alpha-methyl-L-tryptophan as an orally active drug for treating or preventing metabolic conditions” (Texas Tech University System, priority 2021, dated 2026).
“Also recorded” adds a separate entry of the source. Each block holds one compound with its values, some of them ahead of it.

Legend:
[1] = Body weight in wild type male mice on normal or high-fat diet; type: in vivo
Description: (§1) C57B16 mice and oblob (leptin-deficient) mice were from Jackson Laboratories (Bar Harbor, ME). Slc6a14-null mice (Slc6a14^y/− males and Slc6a14^−/− females) on C57BU/6 background were generated in Applicant's lab and have been used to assess the role of this transporter in breast cancer and colon cancer. Mice had free access to water and diet ad libitum. Age- and gender-matched mice were used in control groups (no treatment). Mice were fed a normal diet (ND) (50 IF/6F 5V5R, Labdiet, St. Louis, MO) or a high-fat diet (HFD; 55% calorie from fat) (TD93075; Teklad diets, Madison, WI). The protocol was approved by the Institutional Animal Care and Use Committee of the Texas Tech University Health Sciences Center, Lubbock, TX, USA (IACUC approval number: 15002 for breeding protocol and 18005 for experimental protocol).
Administration of α-methyltryptophan to wild type mice on a high-fat diet would make the mice gain more weight as we found in Slc6a14-null male mice. The results turned out to be quite the opposite. When exposed to the drug for 1 week (2 mg/ml in drinking water; DL-enantiomeric mixture, α-MT), untreated wild type male mice on a high-fat diet gained weight whereas mice exposed to the drug lost weight (FIG. 1B). Since the deletion of Slc6a14 increased the weight gain whereas administration of α-MT to wild type mice decreased the weight gain, the effect of the drug on the body weight has little to do with its ability to block the transporter.
Next, Applicant examined the effect of α-MLT on the body weight in WT C57BL/6 male mice on a normal diet or a high-fat diet (55% calories from fat). The drug was given in drinking water (1 mg/ml). Both with the normal diet and the high-fat diet, mice gained weight when not treated with α-MLT (FIGS. 2A-B). […] This weight-reducing effect was evident with both diets.
(§2) When the drug was withdrawn, mice began to gain weight (FIG. 2B). At 4-weeks of drug exposure, circulating levels of glucose and leptin were measured. Blood glucose was higher in control (i.e., untreated) mice on the high-fat diet than in those on the normal diet (FIGS. 2C-2D). The same was true with leptin levels, which correspond to fat content (FIGS. 2C-2D).

[2] = Body weight in Slc6a14-null male mice on high-fat diet (D- vs L-isomer); type: in vivo; details: Slc6a14-null male mice on HFD; 1 mg/ml in drinking water, one week
Description: as §1
Next, Applicant aimed to determine which isomer in the enantiomeric mixture of α-methyltryptophan elicited a weight-reducing effect. For this, Applicant used the Slc6a14-null male mice on a high-fat diet as a model of obesity. Applicant selected this mouse model of obesity for initial experiments because the weight-reducing effect of α-MT is independent of what the drug does to the transport function of Slc6a14.
Applicant administered the D- and L-isomers separately to these mice on a high-fat diet at a dose of 1 mg/ml in drinking water for one week. […]

[3] = Circulating glucose and leptin in wild type male mice; type: in vivo; details: WT male mice, ND or HFD (independent of diet); 4 weeks, 1 mg/ml in drinking water; 4-h fasting
Experimental: Animals were fasted for 4 h and blood was collected as described above. Blood samples were centrifuged at 1500×g for 20 min and the serum samples were collected and kept at −80° C. until analyzed. Leptin was measured using the mouse/rat Quantikine ELISA kit (MOB00B, R & D Systems, MN).
as §2
(§3) Applicant then performed glucose-tolerance test in control and α-MLT-treated (2-week treatment; 1 mg/ml in drinking water) mice which were fed the high-fat diet for 12 weeks. […] At the end of the experiment, mice were killed, and liver and abdominal fat pad were excised and weighed. Treatment with α-MLT reduced the weight of the liver and the abdominal fat (FIGS. 3C-D).

[4] = Intraperitoneal glucose tolerance test in wild type mice on high-fat diet; type: in vivo; details: WT mice fed HFD 12 weeks; 2-week treatment, 1 mg/ml in drinking water
Experimental: (§4) Intraperitoneal GTT was done in mice fasted for 4 h. Blood glucose was determined using the TRUE track blood glucose monitor (Trividia Health Inc, Fort Lauderdale, FL) at 0, 15, 30, 60, 90 and 120 min after i.p. injection of glucose (2 g/kg body weight).
as §3

[5] = Liver and abdominal fat pad weight in wild type mice on high-fat diet; type: in vivo; details: WT male mice on HFD; 1 mg/ml in drinking water
Experimental: as §3

[6] = Hepatic steatosis (Oil-red-O staining) in wild type mice on high-fat diet; type: in vivo; details: WT mice on HFD 14 weeks; treatment during last two weeks
Experimental: Liver tissue was excised and weighed immediately, snap-frozen in liquid nitrogen, and stored at −80° C. For Oil-red-O (ORO) staining, tissues were OCT embedded, frozen at −20° C., and cut, followed by staining. Slides made from formalin-fixed, paraffin-embedded liver blocks were stained with hematoxylin and eosin (H & E).
Wild type mice developed fatty liver when fed a high-fat diet for 14 weeks as evident from Oil-red-O staining of the liver sections for neutral lipids (FIG. 3E). […] In this experiment, mice were fed the high-fat diet for 12-weeks, after which the mice were divided into two groups, one with no α-MLT exposure and the other with α-MLT administration. The drug treatment was continued for two additional weeks, and all through the experiment, both groups were continuously fed the same high-fat diet.

[7] = Body weight and other parameters in wild type female mice; type: in vivo; details: 1 mg/ml in drinking water, 2 weeks
Experimental: The experiments described above were done with male mice. To see if α-MLT elicits a similar weight-loss effect in female mice, wild type female mice were exposed to α-MLT (1 mg/ml in drinking water) at 3 months of age. The untreated mice gained weight and α-MLT-exposed mice lost weight (FIG. 4A). At end of 2 weeks treatment, mice were killed and mammary fat pad and liver were excised and weighed. The weights of both tissues decreased in the treated mice (FIGS. 4B-C).

[8] = Body weight, food intake, glucose and glucose tolerance in oblob mice on normal diet; type: in vivo
Experimental: as §4
oblob mice are deficient in leptin and therefore obese even on a normal diet. […] Applicant used 12-week-old male oblob mice to evaluate the weight-reducing effect of α-MLT (1 mg/ml in drinking water). There was a gradual weight gain on a normal diet in control mice without the drug (FIG. 5A). In contrast, mice exposed to α-MLT lost weight. At the end of 3-week drug exposure, the reversibility of α-MLT effect was evaluated by withdrawing the drug. […] At the end of the three-week treatment with α-MLT, mice were killed and the weights of the liver and abdominal fat pad were determined.
Applicant also monitored food intake, blood glucose, and glucose tolerance in control mice and α-MLT-treated mice.

[9] = Serum metabolic panel (lipid profile, kidney and liver function) in wild type mice on high-fat diet; type: in vivo; details: WT mice on HFD, 1 mg/ml in drinking water, 4 weeks
Experimental: At the end of the experiment, mice were fasted for 4 h, and blood was collected via orbital sinus using local anesthesia proparacaine. Serum was prepared by centrifugation of the clotted blood, and used for metabolic panel. This was done at our Laboratory Animal Resources Center.
Applicant evaluated the serum profile for metabolites and enzymes to assess the impact of α-MLT (4 weeks treatment; 1 mg/ml in drinking water) in normal mice which were on the high-fat diet for three months prior to initiation of the drug treatment. These tests were designed to assess the function of the kidneys and liver.

[10] = rats; orally 150 mg/kg per day; cited from earlier work
[11] = oblob male mice on normal diet, 1 mg/ml in drinking water, three weeks
[12] = oblob mice on normal diet, three-week treatment

Albumin ([9]; mean ± S.E.M, N=5): 1.90 ± 0.04 g/dL | BUN ([9]; mean ± S.E.M, N=5): 34.2 ± 2.6 mg/dL | Creatinine ([9]; mean ± S.E.M, N=5): 0.30 ± 0.04 mg/dL | Globulin ([9]; mean ± S.E.M, N=5): 2.35 ± 0.09 g/dL | Total bilirubin ([9]; mean ± S.E.M, N=5): 0.6 ± 0.1 mg/dL | Total protein ([9]; mean ± S.E.M, N=5): 4.25 ± 0.06 g/dL
SMILES: C[C@](N)(Cc1c[nH]c2ccccc12)C(=O)O [α-MLT, α-methyl-L-tryptophan]
onset of weight-reducing effect ([1]; 1 mg/ml in drinking water): within a day | body weight ([1]; WT C57BL/6 male mice on normal diet or high-fat diet (both diets), 1 mg/ml in drinking water): decrease in body weight | reversibility of effect on body weight ([1]; upon withdrawal of the drug): reversible | weight-reducing effect (body weight) [2]: active as a weight-reducing agent | circulating level of glucose [3]: significant decrease | circulating level of leptin [3]: significant decrease | glucose tolerance (i.p. GTT) [4]: better glucose tolerance | weight of the abdominal fat [5]: reduced | weight of the liver [5]: reduced | hepatic steatosis (Oil-red-O neutral lipids) [6]: almost completely prevented | blood glucose level [7]: decreased | body weight [7]: lost weight | liver weight [7]: decreased | mammary fat pad weight [7]: decreased | serum leptin level [7]: decreased | body weight ([8]; 12-week-old male oblob mice on normal diet, 1 mg/ml in drinking water, 3 weeks): lost weight; also recorded: decreased | food intake ([8]; oblob male mice on normal diet, 1 mg/ml in drinking water): decreased food intake | blood glucose [8, 11]: lower | insulin sensitivity (glucose tolerance test) [8, 11]: improved insulin sensitivity | abdominal fat [8, 12]: significantly reduced | liver weight [8, 12]: significantly reduced | reversibility of effect on body weight ([8]; oblob mice, drug withdrawn after 3-week exposure): started gaining weight | kidney function (blood urea nitrogen, creatinine) [9]: no evidence of compromise in kidney function | liver function (bilirubin, AST) [9]: no compromise in liver function | AST ([9]; mean ± S.E.M, N=5): 79.5 ± 16.3 U/I | serum Cholesterol ([9]; mean ± S.E.M, N=5): 106 ± 3 mg/dL | serum Triglycerides ([9]; mean ± S.E.M, N=5): 97 ± 17 mg/dL | adverse effects [10]: no noticeable adverse effects

SMILES: CC(N)(Cc1c[nH]c2ccccc12)C(=O)O (racemic) [α-MT, α-methyl-DL-tryptophan]
body weight gain/loss ([1]; wild type male mice on HFD, 2 mg/ml in drinking water, 1 week): lost weight

SMILES: C[C@@](N)(Cc1c[nH]c2ccccc12)C(=O)O [α-MDT, α-methyl-D-tryptophan, reference compound]
weight-reducing effect (body weight) [2]: negligible effect
